Data taken from patent US10035819B2, “PPAR agonists and methods of use thereof” (The Salk Institute for Biological Studies, priority 2014, dated 2018).
Values after ≈ are worked out from the molar mass of the structure shown. Read-outs that look alike come from different tables or passages of the source.

What was measured:
[1] = test system: AKO mice; assay: GW treatment in mouse model of ALD (AKO mice), fatty acid analysis by GC/MS and gene expression; type: in vivo
Text: ALD is a rare genetic disorder caused by defects in peroxisomal oxidation of very long-chain fatty acids (VLCFAs), resulting in systemic accumulation of VLCFAs, which causes tissue defects mainly in the central nervous system and the adrenal glands. The majority of VLCFAs in the body are endogenously synthesized from long-chain fatty acids (LCFAs). Therefore, one potential way to prevent VLCFA accumulation in ALD is by inducing mitochondrial LCFA oxidation to reduce the availability of LCFAs for VLCFA biosynthesis. In order to test this, a previously described mouse model of ALD was used, in which the X-linked adrenoleukodystrophy gene abcdl was systemically ablated and the knockout (AKO) mice faithfully recapitulated the abnormal VLCFA accumulation phenotype seen in ALD patients.
3-month-old AKO mice were treated with or without GW and their tissues collected for free FA analysis using GC/MS.

[2] = % Parent remained in HLM; type: in vitro ADME
[3] = Solubility (kinetic, thermodynamic); type: physicochemical
[4] = type: in vitro ADME; settings: MLM
[5] = Pharmacokinetics in male CD-1 mice (i.v. and p.o.); type: in vivo; settings: CD-1 mice; for Vd: CD-1, mouse, 3 mg/kg
Protocol: The oral bioavailability and serum half lives of PPARδ ligands were compared in mice. The pharmacokinetics of PPARδ ligands delivered orally (10 mg/kg p.o.) and intravenously (3 mg·kg i.v.) were determined by mass spectrometry.
In this example, the PK profile of several PPARδ agonists disclosed herein in male CD-1 mice or Wistar rats was determined. Similar methods can be used to analyze other compounds provided herein.
(quantity sufficient ie made up to a final volume of 100% with water). All compounds were separately administered to CD-1 mice at 3 mg/kg iv or 10 mg/kg po.
The concentration of the compound in plasma was determined, as illustrated in FIGS. 9A-9E.

[6] = target: T1, PPARδ (Homo sapiens, UniProt Q03181); assay: Nuclear Hormone Receptor (NHR) protein interaction assay (PathHunter), agonist format; type: cell-based; settings: PathHunter NHR cell line, agonist format; read-out: NHR protein interaction assay, EC50 (nM) for PPARδ
T1 construct: expressed in transfected cells; host or cells: PathHunter NHR cell lines
T1 sequence (Q03181 1-441): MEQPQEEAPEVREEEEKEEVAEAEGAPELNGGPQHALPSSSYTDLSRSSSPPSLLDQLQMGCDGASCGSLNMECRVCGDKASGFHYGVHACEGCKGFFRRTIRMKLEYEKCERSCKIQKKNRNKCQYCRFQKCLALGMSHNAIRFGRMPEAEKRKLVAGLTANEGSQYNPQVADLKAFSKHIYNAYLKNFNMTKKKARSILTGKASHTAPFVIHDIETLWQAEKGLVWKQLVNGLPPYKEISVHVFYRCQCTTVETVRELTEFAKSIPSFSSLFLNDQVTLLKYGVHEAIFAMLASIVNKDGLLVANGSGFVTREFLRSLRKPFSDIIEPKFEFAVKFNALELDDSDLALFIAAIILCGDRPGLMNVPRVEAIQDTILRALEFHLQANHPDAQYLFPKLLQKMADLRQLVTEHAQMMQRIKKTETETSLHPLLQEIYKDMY
Protocol: • Cell Handling: PathHunter NHR cell lines were expanded from freezer stocks according to standard procedures. Cells were seeded in a total volume of 20 μL into white walled, 384-well microplates and incubated at 37° C. for the appropriate time prior to testing. Assay media contained charcoal-dextran filtered serum to reduce the level of hormones present. • Agonist Format: For agonist determination, cells were incubated with sample to induce response. Intermediate dilution of sample stocks was performed to generate 5× sample in assay buffer. 5 μL of 5× sample was added to cells and incubated at 37° C. or room temperature for 3-16 hours. Final assay vehicle concentration was 1%. • Antagonist Format: For antagonist determination, cells were pre-incubated with antagonist followed by agonist challenge at the EC80 concentration. Intermediate dilution of sample stocks was performed to generate 5× sample in assay buffer. 5 μL of 5× sample was added to cells and incubated at 37° C. or room temperature for 60 minutes. Vehicle concentration was 1%. […] Microplates were read following signal generation with a PerkinElmer Envision™ instrument for chemiluminescent signal detection. • Data Analysis: Compound activity was analyzed using CBIS data analysis suite (ChemInnovation, CA). For agonist mode assays, percentage activity was calculated using the following formula: % Activity=100%×(mean RLU of test sample−mean RLU of vehicle control)/(mean MAX control ligand−mean RLU of vehicle control).
For antagonist mode assays, percentage inhibition was calculated using the following formula: % Inhibition=100%×(1−(mean RLU of test sample−mean RLU of vehicle control)/(mean RLU of EC80 control−mean RLU of vehicle control)). Note that for select assays, the ligand response produces a decrease in receptor activity (inverse agonist with a constitutively active target). For those assays inverse agonist activity was calculated using the following formula: % Inverse Agonist Activity=100%×((mean RLU of vehicle control−mean RLU of test sample)/(mean RLU of vehicle control−mean RLU of MAX control)).

[7] = target: T2, Human PPARδ LBD (Homo sapiens, UniProt Q03181); assay: PPARδ activity screen (GAL4-PPARδ LBD luciferase transactivation in CV-1 cells); type: cell-based
T2 construct: (PPARδ amino acid 128 to C-terminus); expressed in transfected cells; host or cells: CV-1 cells
T2 sequence (Q03181 128-441 limits assumed): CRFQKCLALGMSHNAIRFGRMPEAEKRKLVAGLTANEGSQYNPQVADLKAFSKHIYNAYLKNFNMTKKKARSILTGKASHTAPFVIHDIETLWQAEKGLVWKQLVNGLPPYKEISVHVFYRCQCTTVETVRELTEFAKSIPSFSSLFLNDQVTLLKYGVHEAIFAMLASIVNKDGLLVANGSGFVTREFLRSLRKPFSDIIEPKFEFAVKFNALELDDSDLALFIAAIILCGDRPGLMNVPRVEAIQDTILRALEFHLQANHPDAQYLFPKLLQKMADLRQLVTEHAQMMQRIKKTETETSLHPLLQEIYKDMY
Protocol: Cell Culture and Transfection: CV-1 cells were grown in DMEM+10% charcoal stripped FCS. Cells were seeded into 384-well plates the day before transfection to give a confluency of 50-80% at transfection. A total of […] containing 0.64 micrograms pCMX-PPARDelta LBD, 0.1 micrograms pCMXβGal, 0.08 micrograms pGLMH2004 reporter and 0.02 micrograms pCMX empty vector was transfected per well using FuGene transfection reagent according to the manufacturer's instructions (Roche).
Plasmids: Human PPARδ was used to PCR amplify the PPARδ LBD. […] Ensuing fusions were verified by sequencing.
Compounds: All compounds were dissolved in DMSO and diluted 1:1000 upon addition to the cells. Compounds were tested in quadruple in concentrations ranging from 0.001 to 100 μM. […] Each compound was tested in at least two separate experiments.
Luciferase assay: Medium including test compound was aspirated and washed with PBS. 50 μl PBS including 1 mM Mg++ and Ca++ were then added to each well. The luciferase assay was performed using the LucLite kit according to the manufacturer's instructions (Packard Instruments). Light emission was quantified by counting on a Perkin Elmer Envision reader. […] Beta-galactosidase assays were performed in the microwell plates using a kit from Promega and read in a Perkin Elmer Envision reader. The beta-galactosidase data were used to normalize (transfection efficiency, cell growth etc.) the luciferase data.
Statistical Methods: The activity of a compound is calculated as fold induction compared to an untreated sample. […] EC50 values were calculated via non-linear regression using GraphPad PRISM (GraphPad Software, San Diego, Calif.).

[8] = male, mouse, iv, 3 mg/Kg i.v., plasma
[9] = male, mouse, po, 10 mg/Kg p.o., plasma
[10] = Table 1, CV-1 cells, GAL4-PPARδ LBD luciferase reporter, compound 24 h, read-out: EC50
[11] = Table 15, read-out: PPARd, EC50 (nM) (from Salk)

SMILES: Cc1cc(SCc2sc(-c3ccc(C(F)(F)F)cc3)nc2C)ccc1OCC(=O)O [GW]
- levels of VLCFAs (C22:0, C23:0, C24:0, C26:0) in AKO brain and liver ([1]; 8 weeks of GW treatment, 3-month-old AKO mice): significantly reduced
- liver C26:0 ([1]; 8 weeks of GW treatment, most GW-treated animals): cleared
- most saturated LCFAs (C12:0 to C22:0) and total FAs ([1]; AKO liver and muscle): significantly reduced
- expression of mitochondrial FA oxidation genes (Cptla and lb, Slc25a20, Acadl) ([1]; AKO liver and skeletal muscle): dramatically induced

SMILES: O=C(O)CCCCCOc1ccccc1CN(C(=O)c1ccc(-c2ccco2)cc1)C1CC1 [compound 12]
- % Parent remained at 15 min, HLM ([2]; 15 min): 92%
- % Parent remained at 60 min, HLM ([2]; 60 min): 64%
- solubility kinetic ([3]; kinetic from dmso stock): 6 µM (≈ 2.69 µg/mL)
- solubility thermodynamic ([3]; thermodynamic from solid): 253 µM (≈ 113 µg/mL)
- % Parent remained at 15 min, MLM ([4]; 15 min): 59%
- % Parent remained at 60 min, MLM ([4]; 60 min): 19%
- Cl ([5]; 3 mg/Kg i.v., plasma): 194.938 mL/min/kg
- Kel ([5]; 3 mg/Kg i.v., plasma): 3.85 h⁻¹
- F ([5]; 10 mg/Kg p.o. vs 3 mg/Kg i.v.): ~22%
- Vd ([5]; male, plasma, iv, 3 mg/Kg i.v., plasma, read-out: Vss): 1.58 L/kg
- Vd ([5]; male, plasma, iv, 3 mg/Kg i.v., plasma, read-out: Vz): 3.03 L/kg
- AUC(0-inf) [5, 8]: 256 ng·h/mL
- C0 [5, 8]: 1940 ng/mL
- MRT [5, 8]: 7.2 min
- half-life ([5]; male, mouse, iv, 3 mg/Kg i.v., plasma, read-out: Beta T1/2 (converted)): 10.8 min
- AUC(0-inf) [5, 9]: 187 ng·h/mL
- Cmax [5, 9]: 129 ng/mL
- Tmax [5, 9]: 30 min
- half-life ([5]; male, mouse, po, 10 mg/Kg p.o., plasma, read-out: T1/2 (converted)): 156 min

SMILES: CC(C)N(Cc1ccccc1OCCCCCC(=O)O)C(=O)c1ccc(-c2ccoc2)cc1 [compound 62]
- EC50 [6]: 36.8 nM
- EC50 [7, 10]: 61 nM
- EC50 [7, 11]: 61 nM

SMILES: CC(C)N(Cc1ccccc1OCCCCCC(=O)O)C(=O)c1ccc(-c2ccsc2)cc1 [compound 64]
- EC50 [6]: 8.02 nM
- EC50 [7, 10]: 17.2 nM
- EC50 [7, 11]: 17.2 nM
